Results: patent US5656422A, “Compositions and methods for detection of 2,4-dichlorophenoxyacetic acid and related compounds” (Idaho Research Foundation, Inc., priority 1994, dated 1997)

Key:
[1] = molecular target: T1, 2,4-D α-ketoglutarate dioxygenase (Cupriavidus pinatubonensis, UniProt P10088); set-up: made in house; host or cells: E. coli DH5α (pYG3), cell-free extract; conditions: cited from earlier work
[2] = molecular target: T1, 2,4-D α-ketoglutarate dioxygenase; assay: Enzyme activity and kinetics of recombinant DDO in cell-free extract (DCP production, 4-aminoantipyrine method)
Text: (§1) Effect of pH on enzyme activity. Since the color reaction by the 4-aminoantipyrine method is almost instantaneous, the conversion rate of 2,4-D into DCP determines the response time for 2,4-D detection. Higher reaction rates result in smaller response times or less enzyme needed for 2,4-D detection. […] However, the preferred pH for the color reaction is in the range of pH 8.0 to 12.0. […] More importantly, 4-aminoantipyrine reacts with potassium ferricyanide at pH 6.5, producing a slight color change that is similar to having 2 mg/l DCP in solutions. Although pH 6.5 can be used for the enzymatic reaction if the pH of the solution is subsequently adjusted for the color reaction, this is less convenient.
(§2) Effect of Fe^2+ on enzyme activity. […] This saturation concentration should be a function of enzyme concentration used. In order to maximize enzyme activity, a higher ferrous ion concentration, such as 100 μM, should be used for 2,4-D detection.
(§3) Kinetics of enzymatic reaction. […] Since oxygen cannot be controlled in the process of 2,4-D detection, oxygen was not considered in the model. Kinetic data were measured at pH 8.0, 100 mM Fe^2+ and room temperature (20° C.), as shown in the Lineweaver-Burk plots in FIGS. 18A and 18B.
(§4) The values of model parameters were determined from double reciprocal plots.

[3] = tested on: O=C(O)CCC(=O)C(=O)O; assay: cells, lysate or membranes named; conditions: other: 20° C., pH 8.0, 50 μM Fe^2, cell-free extract
[4] = tested on: O=C(O)COc1ccc(Cl)cc1Cl; assay: cells, lysate or membranes named; conditions: other: 20° C., pH 8.0, 50 μM Fe^2, cell-free extract
Text: as §1, §2, §3, §4

[5] = tested on: E. coli DH5α (pYG3); assay: Induction of enzyme production by IPTG in E. coli DH5α (pYG3); type: cell-based
Protocol: Growth and maintenance of E. coli DH5α (pYG3). E. coli DH5α (pYG3), a strain specifically constructed for 2,4-D detection (Example 1), was routinely maintained on LB plates with 75 mg/l of ampicillin and stored at 4° C. Yeast extract was used as a carbon and energy source for E. coli DH5α (pYG3) with 50 mg/l of ampicillin for selective pressure. Batch cultures of E. coli DH5α (pYG3) were carried out in 1000 ml flasks with 400 ml media for the optimization of media and operating condition. The media were directly inoculated by a single colony on a LB plate. The flasks were shaken on a rotary shaker at 200 rpm and incubated at 30° C. or 37° C.
DCP concentration was measured by the 4-aminoantipyrine method (E. Emerson, J. Org. Chem. 1943, 8, 417-419). In place of 2,4-D, phenoxyacetic acid was used for P. aeruginosa PAO1 (pRO103).
Preparation of cell-free extracts. E. coli cultures (10 or 15 ml) were harvested by centrifugation (8,000×g) for 10 minutes, washed using 5 ml of 100 mM sodium phosphate buffer (pH 8.0), then resuspended in 3 ml of phosphate buffer. Cell-free extracts were obtained by passing the cells once through a pre-chilled French press at 1500 psi and clarifying the debris by centrifugation (16,000×g) for 20 minutes at 4° C.
IPTG concentration. IPTG was used as the inducer of the lacZ promoter which regulated the expression of tfdA in pYG3 (Example 1). […]

T1 sequence (P10088 whole entry): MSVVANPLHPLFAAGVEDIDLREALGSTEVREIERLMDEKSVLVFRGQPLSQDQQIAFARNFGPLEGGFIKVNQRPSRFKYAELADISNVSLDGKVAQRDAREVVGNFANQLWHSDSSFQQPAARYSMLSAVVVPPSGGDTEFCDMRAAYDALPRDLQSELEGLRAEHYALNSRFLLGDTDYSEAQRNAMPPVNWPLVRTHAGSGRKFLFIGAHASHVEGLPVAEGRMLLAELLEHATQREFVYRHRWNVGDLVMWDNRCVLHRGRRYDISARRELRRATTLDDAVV

Compound: O=C(O)COc1cc(Cl)c(Cl)cc1Cl [2,4,5-T, (2,4,5,-trichlorophenoxy)acetic acid]
- cleavage by DDO [1]: does not cleave

Compound: Cc1cc(Cl)ccc1OCC(=O)O [MCPA, 4-chloro-2-methyl-phenoxyacetic acid]
- cleavage by DDO [1]: cleaves the side chain

Compound: 2,4-D α-ketoglutarate dioxygenase [DDO]
- Vmax ([2]; 20° C., pH 8.0, 50 μM Fe^2, cell-free extract of E. coli DH5α (pYG3)): 2.0 µmol/min/mg
- optimum pH for the enzymatic reaction ([2]; conversion of 2,4-D into DCP): 6.5

Compound: 2,4-D α-ketoglutarate dioxygenase (Cupriavidus pinatubonensis JMP134)
- Km [3]: 55 µM
- Km [4]: 107 µM

Compound: Cc1ccccc1OCC(=O)O [2-methylphenoxyacetic acid]
- cleavage by DDO [1]: cleaves

Compound: [Fe+2] [ferrous ions]
- saturation concentration of ferrous ion for enzyme activity ([2]; cell-free extract): 50 µM

Compound: CC(C)S[C@@H]1O[C@H](CO)[C@H](O)[C@H](O)[C@H]1O [IPTG, isopropyl β-D-thiogalactopyranoside]
- saturation IPTG concentration for enzyme production ([5]; E. coli DH5α (pYG3)): approximately 150 mg/l
- activation at 150 µg/mL ([5]; Escherichia coli, at saturation IPTG concentration, approximately 150 mg/l, read-out: enzyme productivity higher than without IPTG): ~40%

Compound: O=C(O)COc1ccccc1 [phenoxyacetic acid]
- cleavage by DDO [1]: cleaves the side chain
